Results published in patent US12162858B2, “Quinoline derivatives as inhibitors of AXL/MER RTK and CSF1R” (QURIENT CO., LTD., priority 2018, dated 2024).

target: T1, Axl (Homo sapiens, UniProt P30530); experiment: Cellular Axl inhibition ELISA (p-Axl, Gas6-induced) using H1299 cells; assay type: cell-based; parameters: especially H1299 cell endogenously expresses Axl; endogenous in cells; host or cells: H1299; conditions: Elisa, comparison of compounds of present invention (**) vs compounds of WO2016/166250 (*), read-out: Cellular activity Axl (H1299) (IC50)
T1 sequence (P30530 26-894): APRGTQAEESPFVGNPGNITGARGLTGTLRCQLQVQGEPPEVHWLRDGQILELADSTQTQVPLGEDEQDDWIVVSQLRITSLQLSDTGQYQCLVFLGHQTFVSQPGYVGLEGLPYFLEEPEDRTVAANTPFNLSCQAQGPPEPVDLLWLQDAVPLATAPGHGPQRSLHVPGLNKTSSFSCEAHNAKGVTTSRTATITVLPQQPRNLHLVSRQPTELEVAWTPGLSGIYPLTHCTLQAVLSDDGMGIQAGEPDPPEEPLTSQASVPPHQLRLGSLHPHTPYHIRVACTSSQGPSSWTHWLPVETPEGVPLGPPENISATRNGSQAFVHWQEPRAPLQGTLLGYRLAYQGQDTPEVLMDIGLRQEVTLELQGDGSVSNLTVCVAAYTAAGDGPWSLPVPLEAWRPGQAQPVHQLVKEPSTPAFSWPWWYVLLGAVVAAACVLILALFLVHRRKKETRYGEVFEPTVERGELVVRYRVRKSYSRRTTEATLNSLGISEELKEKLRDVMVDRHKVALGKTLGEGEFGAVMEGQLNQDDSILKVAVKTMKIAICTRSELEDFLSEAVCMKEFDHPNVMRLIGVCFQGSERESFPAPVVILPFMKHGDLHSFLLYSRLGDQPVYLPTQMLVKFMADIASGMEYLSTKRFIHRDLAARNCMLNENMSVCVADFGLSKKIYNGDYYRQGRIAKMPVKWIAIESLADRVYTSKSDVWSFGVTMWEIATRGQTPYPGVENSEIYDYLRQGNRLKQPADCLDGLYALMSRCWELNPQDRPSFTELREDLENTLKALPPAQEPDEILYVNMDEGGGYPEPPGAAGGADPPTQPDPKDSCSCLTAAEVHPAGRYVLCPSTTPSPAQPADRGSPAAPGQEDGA
Method: Axl is expressed in several of malignant cancer cells; especially H1299 cell endogenously expresses Axl; and an increased phosphorylation of Axl (p-Axl) can be observed, when induced by the Axl ligand, Ga6.
The H1299 cells should be 40-80% confluent in the cell culture flask. Then cells are washed with DPBS and trypsinized. After centrifugation, the cell pellet is re-suspended with pre-warmed culture medium (RPMI1640, 10% FBS) and cells are separated by pipetting 6 times up and down with a 10 ml serological pipette. The cell suspension was diluted to a final concentration of 1.25×10^5 cells/ml. Then 80 μl/well cell suspension is added to the plate. Cell-plates are incubated at 37° C./5% CO2 overnight. Compounds were dissolved by DMSO to 10 mM, and kept in nitrogen cabinet. Prepare the compounds stock plate, the reference compounds concentration starts at 0.50 mM (5 μl+95 μl DMSO), and the tested compounds start at 1.5 mM (6 μl+34 μl DMSO); Then make a 3-fold dilution series (10 doses) compounds. Then dilute compounds by the medium in the mid plate (2 μl compounds+198 μl medium). Transfer 20 μl diluted compounds from mid plate to the cell coated plate. Cell-plates are incubated at 37° C./5% CO2 for 24 h. Add 25 μl of Human Gas6 (1000 ng/ml) to 96-well plate; the final concentration of Human Gas6 is 200 ng/ml. Incubate the plates at 37° C./5% CO2 for 1 h. Remove medium and wash cells once with 300 ul/well ice-cold 1×PBS. Then remove PBS and add 100 μl/well ice-cold 1× Cell Lysis Buffer to 96-well plate. The plate is shaken for 40 min at 4° C. Then plates can be stored at −20° C. After the micro-wells strips have reached room temperature, break off the required number of micro-wells. Place the micro-wells in the strip holder. Unused micro-wells must be resealed and stored at 4° C. immediately. Add 60 μl of cell lysate to the appropriate well. Seal with tape and press firmly onto top of micro-wells. Incubate the plate at 37° C. for 2 h. Gently remove the tape and wash wells 5 times with 1× Wash Buffer, 300 μl each time for each well. Add 100 μl of reconstituted Detection Antibody (green color) to each well. Seal with tape and incubate the plate at 37° C. for 1 h. Repeat wash procedure. Add 100 μl of reconstituted HRP Linked secondary antibody to each well. Seal with tape and incubate the plate at 37° C. for 30 min. Repeat wash procedure. Add 100 μl of TMB Substrate to each well. Seal with tape and incubate the plate at 37° C. for 15 min. Add 100 μl of STOP Solution to each well. Shake gently for a few seconds. Read absorbance at 450 nm within 30 min after adding STOP Solution. Calculations and Formulas: The following calculations and formulas are used for data analysis using XL Fit software: The curve fitting was made using the Sigmoidal Dose-Response Model (Fit model, 205).

Structure (SMILES)	IC50 [nM]
COCCn1cc(OCC(F)(F)F)c(C(=O)Nc2ccc(Oc3ccnc4cc(OC)c(OC)cc34)cn2)n1 [Compound 10]	5.2
CCn1cc(OCC(F)(F)F)c(C(=O)Nc2ccc(Oc3ccnc4cc(OC)c(OC)cc34)cn2)n1 [Compound 4]	3.4
COc1cc2nccc(Oc3ccc(NC(=O)c4n[nH]cc4OCC(F)(F)F)nc3)c2cc1OC [Compound 16]	44

same assay, conditions: read-out: Cellular Axl activity by H1299 Elisa (IC50)

Structure (SMILES)	IC50 [nM]
COc1cc2nccc(Oc3ccc(NC(=O)c4nn(C5CC5)cc4OC(C)C)nc3)c2cc1OC [Compound 108]	< 500
COc1cc2nccc(Oc3ccc(NC(=O)c4nn(CC(C)C)cc4OCC(F)(F)F)cn3)c2cc1OC [Compound 103]	< 500
COCCn1cc(OCC(F)(F)F)c(C(=O)Nc2ccc(Oc3ccnc4cc(OC)c(OC)cc34)nc2)n1 [Compound 104]	500 to 1000
COc1cc2nccc(Oc3ccc(NC(=O)c4nn(CCOC5CC5)cc4OCC(F)(F)F)cn3)c2cc1OC [Compound 130]	≥ 1000
COCCn1cc(OCC(F)(F)F)c(C(=O)Nc2ccc(Oc3ccnc4cc(OC)c(OC)cc34)cn2)n1 [Compound 10]	< 500
CNCCn1cc(OCC(F)(F)F)c(C(=O)Nc2ccc(Oc3ccnc4cc(OC)c(OC)cc34)cc2)n1 [Compound 119]	≥ 1000
CNCCn1cc(OCC(F)(F)F)c(C(=O)Nc2ccc(Oc3ccnc4cc(OC)c(OC)cc34)cn2)n1 [Compound 11]	< 500
COc1cc2nccc(Oc3ccc(NC(=O)c4nn(C5CCN(C)C5)cc4OCC(F)(F)F)nn3)c2cc1OC (centres unmarked) [Compound 157]	≥ 1000
CCn1cc(OCC(F)(F)F)c(C(=O)Nc2ccc(Oc3ccnc4cc(OC)c(OC)cc34)cn2)n1 [Compound 4]	< 500
COc1cc2nccc(Oc3ccc(NC(=O)c4nn(C5CC5)cc4OCC4COC4)nc3)c2cc1OC [Compound 143]	< 500
COc1cc2nccc(Oc3ccc(NC(=O)c4nn(CC5COC5)cc4OCC(F)(F)F)cc3C)c2cc1OC [Compound 99]	< 500
COc1cc2nccc(Oc3ccc(NC(=O)c4nn(C5CCOC5)cc4OCC(F)(F)F)cn3)c2cc1OC (centres unmarked) [Compound 138]	< 500
CCCn1cc(OCC2CNC2)c(C(=O)Nc2ccc(Oc3ccnc4cc(OC)c(OC)cc34)cn2)n1 [Compound 159]	≥ 1000
COCCOc1cn(CC(C)O)nc1C(=O)Nc1ccc(Oc2ccnc3cc(OC)c(OC)cc23)cn1 (centres unmarked) [Compound 150]	< 500
COc1cc2nccc(Oc3ccc(NC(=O)c4n[nH]cc4OCC(F)(F)F)nc3)c2cc1OC [Compound 16]	< 500
COc1cc2nccc(Oc3ccc(NC(=O)c4nn(CC5COC5)cc4OCC(F)(F)F)cn3)c2cc1OC [Compound 134]	< 500
COc1cc2nccc(Oc3ccc(NC(=O)c4nn(CCO)cc4OCC(F)(F)F)cn3)c2cc1OC [Compound 129]	≥ 1000
COc1cc2nccc(Oc3ccc(NC(=O)c4nn(CC5COC5)cc4OCC(F)(F)F)cc3)c2cc1OC [Compound 101]	< 500
COc1cc2nccc(Oc3ccc(NC(=O)c4nn(C5CC5)cc4OCCF)nc3)c2cc1OC [Compound 110]	< 500
COc1cc2nccc(Oc3ccc(NC(=O)c4nn(C5CC5)cc4OCC(F)F)nc3)c2cc1OC [Compound 109]	< 500
COc1cc2nccc(Oc3ccc(NC(=O)c4nn(CCOC5CC5)cc4OCC(F)(F)F)c(F)c3)c2cc1OC [Compound 115]	< 500
CCCn1cc(OCC(F)(F)F)c(C(=O)Nc2ccc(Oc3ccnc4cc(OC)c(OC)cc34)c(C(F)(F)F)c2)n1 [Compound 114]	< 500
CCCn1cc(OCCNC)c(C(=O)Nc2ccc(Oc3ccnc4cc(OC)c(OC)cc34)cn2)n1 [Compound 140]	≥ 1000
COc1cc2nccc(Oc3ccc(NC(=O)c4nn(CC5COC5)cc4OCC(F)(F)F)cc3F)c2cc1OC [Compound 97]	< 500

Structure (SMILES)	IC50 [nM]
COc1cc2nccc(Oc3ccc(NC(=O)c4nn(C5CC5)cc4NCC(F)(F)F)nn3)c2cc1OC [Compound 148]	< 500
COc1cc2nccc(Oc3ccc(NC(=O)c4nn(CC(C)O)cc4OCCF)nc3)c2cc1OC (centres unmarked) [Compound 152]	500 to 1000
CCCn1cc(NCCC(F)(F)F)c(C(=O)Nc2ccc(Oc3ccnc4cc(OC)c(OC)cc34)cn2)n1 [Compound 158]	< 500
COc1cc2nccc(Oc3ccc(NC(=O)c4nn(C5CC5)cc4NCCC(F)(F)F)nc3)c2cc1OC [Compound 142]	< 500
COc1cc2nccc(Oc3ccc(NC(=O)c4nn(CC(C)O)cc4OCC4CCC4)nc3)c2cc1OC (centres unmarked) [Compound 163]	< 500
CCCn1cc(OCC(F)(F)F)c(C(=O)Nc2ccc(Oc3ccnc4cc(OC)c(OC)cc34)nc2)n1 [Compound 139]	< 500
COCCn1cc(OCC(F)(F)F)c(C(=O)Nc2ccc(Oc3ccnc4cc(OC)c(OC)cc34)nn2)n1 [Compound 126]	< 500
CNCCOc1cn(C2CC2)nc1C(=O)Nc1ccc(Oc2ccnc3cc(OC)c(OC)cc23)cn1 [Compound 141]	≥ 1000
COc1cc2nccc(Oc3ccc(NC(=O)c4nn(C5CC5)cc4OCC4COC4)nn3)c2cc1OC [Compound 161]	< 500
COc1cc2nccc(Oc3ccc(NC(=O)c4nn(C5CCN(C)C5)cc4OCC(F)(F)F)cc3C)c2cc1OC (centres unmarked) [Compound 98]	≥ 1000
COc1cc2nccc(Oc3ccc(NC(=O)c4nn(CCN)cc4OCC(F)(F)F)nn3)c2cc1OC [Compound 125]	≥ 1000
CCCn1cc(OCCOC)c(C(=O)Nc2ccc(Oc3ccnc4cc(OC)c(OC)cc34)cn2)n1 [Compound 105]	< 500
COc1cc2nccc(Oc3ccc(NC(=O)c4nn(C5CCCC5)cc4OCC(F)(F)F)nn3)c2cc1OC [Compound 121]	< 500
COc1cc2nccc(Oc3ccc(NC(=O)c4nn(C5CC5)cc4OCC4CCC4)nc3)c2cc1OC [Compound 111]	< 500
COc1cc2nccc(Oc3ccc(NC(=O)c4nn(C5CCN(C)C5)cc4OCC(F)(F)F)cc3F)c2cc1OC (centres unmarked) [Compound 96]	< 500
COc1cc2nccc(Oc3ccc(NC(=O)c4nn(CC(C)O)cc4OCC(F)(F)F)cn3)c2cc1OC (centres unmarked) [Compound 136]	≥ 1000
CCCn1cc(OCC(F)F)c(C(=O)Nc2ccc(Oc3ccnc4cc(OC)c(OC)cc34)cn2)n1 [Compound 12]	< 500
COc1cc2nccc(Oc3ccc(NC(=O)c4nn(C)cc4OCC(F)(F)F)nn3)c2cc1OC [Compound 102]	≥ 1000
COCCOc1cn(C2CC2)nc1C(=O)Nc1ccc(Oc2ccnc3cc(OC)c(OC)cc23)cn1 [Compound 107]	< 500
CNCCn1cc(OCC(F)(F)F)c(C(=O)Nc2ccc(Oc3ccnc4cc(OC)c(OC)cc34)cc2F)n1 [Compound 154]	500 to 1000
COc1cc2nccc(Oc3ccc(NC(=O)c4nn(CC(C)O)cc4OC(C)C)nc3)c2cc1OC (centres unmarked) [Compound 151]	< 500
COc1cc2nccc(Oc3ccc(NC(=O)c4nn(CCOC5CC5)cc4OCC(F)(F)F)nc3)c2cc1OC [Compound 153]	< 500
COc1cc2nccc(Oc3ccc(NC(=O)c4nn(CC5COC5)cc4OCC(F)(F)F)nn3)c2cc1OC [Compound 123]	< 500
